The nature of data set [1]: Acute toxicity test, oral, mouse. As to conditions: in vivo. The procedure:
The compound of the present invention was orally administered to a mouse and acute toxicity value was measured.

Data set [2] relates to human Alzheimer's disease. As to conditions: in combination with use of lecithin; Summers, N. Engl. J. Med. 315, 1241 (1986); cited from earlier work.
The subject of data set [3] is Na^+ dependent high-affinity choline uptake (HACU) of AF64A-treated rat hippocampus. As to the kind of experiment: Na+ dependent high-affinity choline uptake (HACU) in crude synaptosomal fraction of AF64A-treated rat hippocampus. To be noted: for Improved ratio (% based on Control): HACU, AF64A-treated rat hippocampus synaptosomal fraction, [3H]choline 1 μM, 37° C. The data set is classed as biochemical. How it is done: Effects on Na^+ dependent high-affinity choline uptake (HACU) of AF64A-treated rat hippocampus
According to the method of Fischer et al. [J. Pharm. Exper. Ther., Vol. 222, p. 140 (1982)], AF64A was prepared from AF64. AF64A (1.5 nmole/1.5 μl/side) was injected into rat's both ventricles. After one week, subjecting decapitation, only hippocampus was taken out. It was homogenized with 0.32M of sucrose, centrifuged for 10 minutes at 1000 g, and the supernatant was further centrifuged for 20 minutes at 20,000 g to give crude synaptosomal fraction. The crude synaptosomal fraction and medicament were subjected to incubation at 37° C. for 30 minutes, and after addition of [^3 H]choline (1 μM), they were further subjected to incubation at 37° C. for 10 minutes.
As a control, the crude synaptosomal fraction was subjected to incubation at 37° C. for 30 minutes, and after addition of choline [^3 H]choline (1 μM), it was further subjected to incubation at 37° C. for 10 minutes to use. The reaction was stopped by subjecting filtration on Whatman GF/B filter. Radioactivity on the filter was measured by a liquid scintillation counter and it was made as the HACU amount. An amount of protein was determined according to the method of Bradford. [Analytical Biochemistry, Vol. 72, p. 248 (1976)].

Structures can show the parent of a compound that is named as a salt.

Turning to `Nc1c2c(nc3ccccc13)CCCC2` [9-Amino-1,2,3,4-tetrahydroacridine, reference compound], in data set [1], the LD50 (in general, the dose at which mortality reaches 50%) amounted to 67 mg/kg. Besides, in data set [2], the “effectiveness in human Alzheimer's disease” value is listed as “effective to human Alzheimer's disease”. In addition, the “Improved ratio (% based on Control)” value in data set [3] (10^-4 M) is recorded as -73%; in data set [3] (10^-5 M) it was -11%; in data set [3] (10^-6 M) it was 8%; in data set [3] (10^-7 M), 5%; in data set [3] (10^-8 M), 2%. Moreover, in data set [3] (AF64A injected in cerebral ventricles), the “high affinity-choline uptake in hippocampus synaptosome of AF64A-injected rat (activation, in words)” value is “could not be found out”.

`CCCC(=O)Nc1c2c(nc3ccccc13)CCCC2` [Example 1, N-(1,2,3,4-tetrahydroacridin-9-yl)butanamide] gave an LD50 in data set [1] of 1000 mg/kg. Moreover, the “Improved ratio (% based on Control)” value in data set [3] (10^-4 M) was 15%; in data set [3] (10^-5 M), 31%; in data set [3] (10^-6 M), 28%; in data set [3] (10^-7 M), 13%; in data set [3] (10^-8 M), 20%.

Take `CC(C)C(=O)Nc1c2c(nc3ccccc13)CCCC2` [Example 3]: the “Improved ratio (% based on Control)” value in data set [3] (10^-4 M) was 21%; in data set [3] (10^-5 M) it was 19%; in data set [3] (10^-6 M), 11%; in data set [3] (10^-7 M), 16%; in data set [3] (10^-8 M), 13%.

For the compound `CCCCC(=O)Nc1c2c(nc3ccccc13)CCCC2` [Example 4], the “Improved ratio (% based on Control)” value in data set [3] (10^-4 M) came out at 5%; in data set [3] (10^-5 M), 29%; in data set [3] (10^-6 M), 3%; in data set [3] (10^-7 M), 5%; in data set [3] (10^-8 M), 4%.

Take `O=C(CN1CCCC1=O)Nc1c2c(nc3ccccc13)CCCC2` [Example 14, 2-(2-oxopyrrolidin-1-yl)-N-(1,2,3,4-tetrahydroacidin-9-yl)acetamide hydrochloride]: in data set [1], the 50% lethal dose (LD50) came out at 2300 mg/kg. For the same compound, the “Improved ratio (% based on Control)” value in data set [3] (10^-4 M) is 21%; in data set [3] (10^-5 M), 17%; in data set [3] (10^-6 M), 16%; in data set [3] (10^-7 M) it was 19%; in data set [3] (10^-8 M) it was 12%.

Turning to `Cc1ccc2nc3c(c(NC(=O)CN4CCCC4=O)c2c1)CCCC3` [Example 15], the “Improved ratio (% based on Control)” value in data set [3] (10^-5 M) was -2%; in data set [3] (10^-6 M) it was 28%; in data set [3] (10^-7 M) it was -5%; in data set [3] (10^-8 M), 3%.

As to `CN1CCc2nc3ccccc3c(NC(=O)CN3CCCC3=O)c2C1` [Example 20], the “Improved ratio (% based on Control)” value in data set [3] (10^-4 M) was 28%; in data set [3] (10^-5 M), 9%; in data set [3] (10^-6 M) it was 23%; in data set [3] (10^-7 M), 21%; in data set [3] (10^-8 M), 10%.

On to `O=C(CN1CCCC1=O)Nc1c2c(nc3ccccc13)CCN(Cc1ccccc1)C2` [Example 21], for which the “Improved ratio (% based on Control)” value in data set [3] (10^-4 M) is listed as 18%; in data set [3] (10^-5 M) it was 32%; in data set [3] (10^-6 M) it was 19%; in data set [3] (10^-7 M) it was 11%; in data set [3] (10^-8 M) it was 10%.

Turning to `O=C(CN1CCCC1=O)Nc1c2c(nc3ccccc13)C1CCN2CC1` [Example 22], the “Improved ratio (% based on Control)” value in data set [3] (10^-4 M) worked out at 4%; in data set [3] (10^-5 M), 30%; in data set [3] (10^-6 M), 10%; in data set [3] (10^-7 M), 16%; in data set [3] (10^-8 M), 13%.

As to `O=C(CN1CCCC1=O)Nc1c2c(nc3sccc13)CCCC2` [Example 27], the “Improved ratio (% based on Control)” value in data set [3] (10^-4 M) is 9%; in data set [3] (10^-5 M), 41%; in data set [3] (10^-6 M), 25%; in data set [3] (10^-7 M), 19%; in data set [3] (10^-8 M), 5%.

For the compound `O=C(CN1C(=O)CCC1=O)Nc1c2c(nc3ccccc13)CCCC2` [Example 35], the “Improved ratio (% based on Control)” value in data set [3] (10^-4 M) worked out at 26%; in data set [3] (10^-5 M), 27%; in data set [3] (10^-6 M) it was 15%; in data set [3] (10^-7 M), 26%; in data set [3] (10^-8 M) it was 2%.

`O=C1CN(CC(=O)Nc2c3c(nc4ccccc24)CCCC3)C(=O)CN1` [Example 37] yielded an LD50 in data set [1] of 2100 mg/kg. For the same compound, the “Improved ratio (% based on Control)” value in data set [3] (10^-4 M) came to 39%; in data set [3] (10^-5 M), 34%; in data set [3] (10^-6 M), 27%; in data set [3] (10^-7 M) it was 9%; in data set [3] (10^-8 M), 14%.

On to `CNCC(=O)Nc1c2c(nc3ccccc13)CCCC2` [Example 39, 9-[(2-methylamino)acetyl-amino]-1,2,3,4-tetrahydroacridine], for which the “Improved ratio (% based on Control)” value in data set [3] (10^-4 M) was -11%; in data set [3] (10^-5 M) it was 24%; in data set [3] (10^-6 M), 16%; in data set [3] (10^-7 M), 8%; in data set [3] (10^-8 M), 5%.

For `CCOC(=O)CNCC(=O)Nc1c2c(nc3ccccc13)CCCC2` [Example 40], the “Improved ratio (% based on Control)” value was 3% in data set [3] (10^-4 M); 20% in data set [3] (10^-5 M); 14% in data set [3] (10^-6 M); 18% in data set [3] (10^-7 M); 8% in data set [3] (10^-8 M).

For `O=C(Cn1ccnc1)Nc1c2c(nc3ccccc13)CCCC2` [Example 41], the “Improved ratio (% based on Control)” value in data set [3] (10^-4 M) is reported as 20%; in data set [3] (10^-5 M) it was 46%; in data set [3] (10^-6 M), 18%; in data set [3] (10^-7 M) it was 5%; in data set [3] (10^-8 M), 5%.

For `CC(=O)N(C)CC(=O)Nc1c2c(nc3ccccc13)CCCC2` [Example 42], the “Improved ratio (% based on Control)” value in data set [3] (10^-4 M) was determined as 11%; in data set [3] (10^-5 M), 29%; in data set [3] (10^-6 M) it was 30%; in data set [3] (10^-7 M), 14%; in data set [3] (10^-8 M), 11%.

As to `NC(=O)NCC(=O)Nc1c2c(nc3ccccc13)CCCC2` [Example 46], the “Improved ratio (% based on Control)” value in data set [3] (10^-4 M) was 27%; in data set [3] (10^-5 M) it was 13%; in data set [3] (10^-6 M), 28%; in data set [3] (10^-7 M) it was 11%; in data set [3] (10^-8 M) it was -8%.

In the case of `CNC(=O)N1CCc2nc3ccccc3c(NC(=O)CN3CCCC3=O)c2C1` [Example 50], the “Improved ratio (% based on Control)” value in data set [3] (10^-5 M) is given as 27%; in data set [3] (10^-6 M) it was 35%; in data set [3] (10^-7 M), 20%; in data set [3] (10^-8 M), 4%.

`CCCC(=O)Nc1c2c(nc3ccccc13)CCC(O)C2` (stereo not drawn) [Example 53, N-(1,2,3,4-tetrahydroacridin-2-ol-9-yl)butanamide]: the “Improved ratio (% based on Control)” value in data set [3] (10^-4 M) is reported as 14%; in data set [3] (10^-5 M), 15%; in data set [3] (10^-6 M), 23%; in data set [3] (10^-7 M) it was 18%; in data set [3] (10^-8 M) it was 14%.

Source of the values: patent US4985430A, “9-acylamino-tetrahydroacridine derivatives and memory enhancing agent containing said derivative as active ingredient” (priority 1987, dated 1991).
